Measured values as given in US20260042753A1 (Merck Patent GmbH, priority 2019, published 2026).
pIC50: −log10 of the molar value. Like-named read-outs stand apart in the source and are kept apart here.

Key:
[1] = molecular target: c-Kit(V654A) (Homo sapiens, UniProt P10721, V654A); test: c-Kit(V654A) assay; assay type: biochemical
How it was run: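 Radiometric filter-binding read-out: after 3% phosphoric acid stop, peptide-incorporated 33P on filtermat scintillation-counted. Enzyme: human c-Kit V654A, residues 544–end, N-terminal GST fusion.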

[2] = molecular target: mutant cKIT (560-576 and V654A) in GIST430/654 cell line (Homo sapiens (Human), UniProt P10721, DEL560-576/V654A); test: Cellular testing of cKIT mutant inhibitors: phospho-Y307-cKIT Luminex assay in GIST430/654 cells; assay type: cell-based; conditions: read-out: GIST 430/654 IC50
How it was run: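 GIST430/654 cells carrying constitutively active cKIT (Δ560-576/V654A) were grown with 100 nM imatinib, then treated with serially diluted compound for 45 min. Lysates were captured on anti-total-cKIT Luminex beads overnight at 4 °C and probed for phospho-Y307-cKIT. IC50 was fitted from percent of 0.3% DMSO control.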

[3] = Table 1, cKIT autophosphorylation, compounds 45 min
[4] = Table 2, corresponding triazole derivatives

Sequence of mutant cKIT (560-576 and V654A) in GIST430/654 cell line (P10721 other isoform, or with tags, fused parts or gaps V654A/del 1-25/del 560-576 limits assumed): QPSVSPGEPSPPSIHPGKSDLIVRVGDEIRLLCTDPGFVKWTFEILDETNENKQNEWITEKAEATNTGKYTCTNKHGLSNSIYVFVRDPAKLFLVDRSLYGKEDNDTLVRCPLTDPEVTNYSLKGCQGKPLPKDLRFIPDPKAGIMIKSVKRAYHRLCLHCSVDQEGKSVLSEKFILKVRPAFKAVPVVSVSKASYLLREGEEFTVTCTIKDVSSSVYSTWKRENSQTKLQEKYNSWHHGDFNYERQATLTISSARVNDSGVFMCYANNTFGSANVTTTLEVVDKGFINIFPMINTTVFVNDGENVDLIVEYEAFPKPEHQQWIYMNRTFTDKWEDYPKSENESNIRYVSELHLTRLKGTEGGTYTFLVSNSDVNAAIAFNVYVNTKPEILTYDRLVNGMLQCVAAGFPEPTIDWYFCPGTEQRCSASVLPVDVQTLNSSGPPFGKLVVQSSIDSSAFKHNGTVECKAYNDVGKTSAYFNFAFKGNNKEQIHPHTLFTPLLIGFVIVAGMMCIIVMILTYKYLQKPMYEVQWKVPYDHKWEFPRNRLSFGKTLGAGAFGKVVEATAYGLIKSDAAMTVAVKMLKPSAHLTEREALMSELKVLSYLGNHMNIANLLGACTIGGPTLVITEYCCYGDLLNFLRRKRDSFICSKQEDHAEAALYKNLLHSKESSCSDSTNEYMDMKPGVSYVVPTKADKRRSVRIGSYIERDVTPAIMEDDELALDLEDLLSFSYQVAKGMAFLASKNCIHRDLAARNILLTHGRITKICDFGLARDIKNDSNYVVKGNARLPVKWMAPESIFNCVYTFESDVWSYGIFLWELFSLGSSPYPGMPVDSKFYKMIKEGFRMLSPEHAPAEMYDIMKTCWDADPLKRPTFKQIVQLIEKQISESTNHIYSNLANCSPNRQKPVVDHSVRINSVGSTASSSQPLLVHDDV

SMILES | pIC50 ([1]; Table 1, 200 μM ATP) | pIC50 [2, 3] | pIC50 [1, 4] | pIC50 [2, 4]
COCCOc1cc2[nH]nc(-c3cc(-c4ccc(C(=O)N5CC6(CCOC6)C5)cc4)no3)c2cc1F [A77, 5-fluoro-6-(2-methoxyethoxy)-3-[3-(4-{6-oxa-2-azaspiro[3.4]octane-2-carbonyl}phenyl)-1,2-oxazol-5-yl]-1H-indazole] | 9.00 | 7.33 | – | –
COCCOc1cc2[nH]nc(-c3cc(-c4ccc(C(=O)N5CC(N6CCO[C@H](C)C6)C5)cc4)no3)c2cc1F [A211, 5-fluoro-6-(2-methoxyethoxy)-3-[3-(4-{3-[(2R)-2-methylmorpholin-4-yl]azetidine-1-carbonyl}phenyl)-1,2-oxazol-5-yl]-1H-indazole] | 8.89 | 7.41 | – | –
COCCOc1cc2[nH]nc(-c3cc(-c4ccc(C(=O)N5CCC6(CCOC6)C5)cc4)no3)c2cc1F (centres unmarked) [A157, 7-(4-{5-[5-fluoro-6-(2-methoxyethoxy)-1H-indazol-3-yl]-1,2-oxazol-3-yl}benzoyl)-2-oxa-7-azaspiro[4.4]nonane] | 9.36 | 7.64 | – | –
COCCOc1cc2[nH]nc(-c3cc(-c4ccc(C(=O)N5CC(N6CC7(COC7)C6)C5)cc4)no3)c2cc1F [A187, 5-fluoro-6-(2-methoxyethoxy)-3-f{3-[4-(3-f{2-oxa-6-azaspiro[3.3]heptan-6-yl}azetidine-1-carbonyl)phenyl]-1,2-oxazol-5-yl}-1H-indazole] | 8.85 | 6.54 | – | –
COCCOc1cc2[nH]nc(-c3cc(-c4ccc(C(=O)N5CCOC[C@@H]5CS(C)(=O)=O)cc4)no3)c2cc1F [A184, (4-{5-[5-fluoro-6-(2-methoxy-ethoxy)-1H-indazol-3-yl]-isoxazol-3-yl}-phenyl)-((R)-3-methanesulfonylmethyl-morpholin-4-yl)-methanone] | 8.96 | 6.92 | – | –
COCCOc1cc2[nH]nc(-c3cc(-c4ccc(-n5nc(C)ccc5=O)cc4)no3)c2cc1F [A136, 2-(4-{5-[5-fluoro-6-(2-methoxy-ethoxy)-1H-indazol-3-yl]-isoxazol-3-yl}-phenyl)-6-methyl-2H-pyridazin-3-one] | 8.23 | 6.85 | – | –
COCCOc1cc2[nH]nc(-c3cc(-c4ccc(N5CCCN(C)CC5)cc4)no3)c2cc1F [A123, 5-fluoro-6-(2-methoxyethoxy)-3-{3-[4-(4-methyl-1,4-diazepan-1-yl)phenyl]-1,2-oxazol-5-yl}-1H-indazole] | 9.41 | 7.42 | – | –
COCCOc1cc2[nH]nc(-c3cc(-c4ccc(C(=O)N5CCO[C@H](C)C5)cc4)no3)c2cc1F [A180, 5-fluoro-6-(2-methoxyethoxy)-3-(3-{4-[(2R)-2-methylmorpholine-4-carbonyl]phenyl}-1,2-oxazol-5-yl)-1H-indazole] | 8.70 | 7.18 | – | –
COCCOc1cc2[nH]nc(-c3cn(-c4ccc(C(=O)N5C[C@H]6COC[C@H]6C5)cc4)nn3)c2cc1F [reference compound] | – | – | 8.30 | 6.33
COCCOc1cc2[nH]nc(-c3cn(-c4ccc(C(=O)N5CCOC[C@@H]5C)cc4)nn3)c2cc1F [reference compound] | – | – | 8.16 | 6.64
COCCOc1cc2[nH]nc(-c3cc(-c4ccc(C(=O)N5CCN(C6COC6)CC5)cc4)no3)c2cc1F [A45, (4-{5-[5-fluoro-6-(2-methoxy-ethoxy)-1H-indazol-3-yl]-isoxazol-3-yl}-phenyl)-(4-oxetan-3-yl-piperazin-1-yl)-methanone] | 8.92 | 7.23 | – | –
COCCOc1cc2[nH]nc(-c3cn(-c4ccc(C(=O)N5CC[C@H]5C(C)(C)O)cc4)nn3)c2cc1F [reference compound] | – | – | 8.12 | 6.62
COCCOc1cc2[nH]nc(-c3cc(-c4ccc(C(=O)N5CCN(C6COC6)CC5)nc4)no3)c2cc1F [A68, (5-{5-[5-fluoro-6-(2-methoxy-ethoxy)-1H-indazol-3-yl]-isoxazol-3-yl}-pyridin-2-yl)-(4-oxetan-3-yl-piperazin-1-yl)-methanone] | 7.80 | 6.06 | – | –
